The record followed here is PMC7663272, “Discovery of Tricyclic Pyranochromenone as Novel Bruton’s Tyrosine Kinase Inhibitors with In Vivo Antirheumatic Activity” (International Journal of Molecular Sciences, 2020).

Holding throughout (format): biochemical
For test [1], the target named is T1, ITK (Homo sapiens, UniProt Q08881).
T1 construct: purchased Reaction Biology Corporation
T1 sequence (Q08881 1-620): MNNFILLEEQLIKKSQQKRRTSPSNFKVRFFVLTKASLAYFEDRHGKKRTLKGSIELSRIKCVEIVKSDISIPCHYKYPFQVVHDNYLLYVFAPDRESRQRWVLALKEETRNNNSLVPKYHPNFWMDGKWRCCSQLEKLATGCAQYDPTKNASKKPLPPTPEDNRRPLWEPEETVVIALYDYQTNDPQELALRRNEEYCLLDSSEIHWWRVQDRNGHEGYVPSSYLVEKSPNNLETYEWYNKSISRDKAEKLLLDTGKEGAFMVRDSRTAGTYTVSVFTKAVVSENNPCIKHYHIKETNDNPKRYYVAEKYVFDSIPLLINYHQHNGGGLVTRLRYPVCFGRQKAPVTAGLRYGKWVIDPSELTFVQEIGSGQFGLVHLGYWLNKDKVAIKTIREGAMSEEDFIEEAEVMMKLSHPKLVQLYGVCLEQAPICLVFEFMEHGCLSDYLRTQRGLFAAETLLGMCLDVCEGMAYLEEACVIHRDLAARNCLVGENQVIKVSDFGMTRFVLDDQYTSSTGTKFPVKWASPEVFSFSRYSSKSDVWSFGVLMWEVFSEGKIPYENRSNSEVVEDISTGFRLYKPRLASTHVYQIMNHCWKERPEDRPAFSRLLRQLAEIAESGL
As to the kind of experiment: HotSpot kinase enzymatic assay, ITK. As for the experimental part: (§1) Therefore, efforts have focused on developing new compounds with good selectivity profiles. […] Compound 8 was selective against BTK. The biochemical activities of compound 8 differed among TEC family kinases. […] The inhibitory potential of compound 8 differed between members of the EGFR family. […] The inhibitory activity of compound 8 against JAK3 was also low.
(§2) Kinase enzymatic assays for BTK, BMX, TXK, TEC, ITK, EGFR, ERBB2, ERBB4, and JAK3 were performed at Reaction Biology Corporation (www.reactionbiology.com, Malvern, PA, USA) using the HotSpot assay platform. Briefly, specific kinase/substrate pairs and the required cofactors were prepared in a reaction buffer comprising 20 mM HEPES (pH 7.5), 10 mM MgCl2, 1 mM EGTA, 0.02% Brij35, 0.02 mg/mL BSA, 0.1 mM Na3VO4, 2 mM DTT, and 1% DMSO. The compounds were added to the reaction mixture and allowed to incubate. Approximately 20 min later, a mixture of ATP (Sigma-Aldrich, St. Louis, MO, USA) and ^33P ATP (PerkinElmer, Waltham, MA, USA) was added to the reaction mixture at a final concentration of 10 μM. The reactions were performed at room temperature for 120 min; subsequently, the reactions were spotted onto P81 ion exchange filter papers (Whatman Inc., Maidstone, UK). Any unbound phosphate was removed by thoroughly washing the filter papers with 0.75% phosphoric acid. […]

The target in test [2] is T2, EGFR (Homo sapiens, UniProt P00533).
T2 construct: purchased Reaction Biology Corporation
As to the kind of experiment: HotSpot kinase enzymatic assay, EGFR. As for the experimental part: as §1, §2

The target of test [3] is T3, ERBB4 (Homo sapiens, UniProt Q15303).
T3 construct: purchased Reaction Biology Corporation
Kind of test: HotSpot kinase enzymatic assay, ERBB4. How it is done: as §1, §2

T2 sequence (P00533 25-1210): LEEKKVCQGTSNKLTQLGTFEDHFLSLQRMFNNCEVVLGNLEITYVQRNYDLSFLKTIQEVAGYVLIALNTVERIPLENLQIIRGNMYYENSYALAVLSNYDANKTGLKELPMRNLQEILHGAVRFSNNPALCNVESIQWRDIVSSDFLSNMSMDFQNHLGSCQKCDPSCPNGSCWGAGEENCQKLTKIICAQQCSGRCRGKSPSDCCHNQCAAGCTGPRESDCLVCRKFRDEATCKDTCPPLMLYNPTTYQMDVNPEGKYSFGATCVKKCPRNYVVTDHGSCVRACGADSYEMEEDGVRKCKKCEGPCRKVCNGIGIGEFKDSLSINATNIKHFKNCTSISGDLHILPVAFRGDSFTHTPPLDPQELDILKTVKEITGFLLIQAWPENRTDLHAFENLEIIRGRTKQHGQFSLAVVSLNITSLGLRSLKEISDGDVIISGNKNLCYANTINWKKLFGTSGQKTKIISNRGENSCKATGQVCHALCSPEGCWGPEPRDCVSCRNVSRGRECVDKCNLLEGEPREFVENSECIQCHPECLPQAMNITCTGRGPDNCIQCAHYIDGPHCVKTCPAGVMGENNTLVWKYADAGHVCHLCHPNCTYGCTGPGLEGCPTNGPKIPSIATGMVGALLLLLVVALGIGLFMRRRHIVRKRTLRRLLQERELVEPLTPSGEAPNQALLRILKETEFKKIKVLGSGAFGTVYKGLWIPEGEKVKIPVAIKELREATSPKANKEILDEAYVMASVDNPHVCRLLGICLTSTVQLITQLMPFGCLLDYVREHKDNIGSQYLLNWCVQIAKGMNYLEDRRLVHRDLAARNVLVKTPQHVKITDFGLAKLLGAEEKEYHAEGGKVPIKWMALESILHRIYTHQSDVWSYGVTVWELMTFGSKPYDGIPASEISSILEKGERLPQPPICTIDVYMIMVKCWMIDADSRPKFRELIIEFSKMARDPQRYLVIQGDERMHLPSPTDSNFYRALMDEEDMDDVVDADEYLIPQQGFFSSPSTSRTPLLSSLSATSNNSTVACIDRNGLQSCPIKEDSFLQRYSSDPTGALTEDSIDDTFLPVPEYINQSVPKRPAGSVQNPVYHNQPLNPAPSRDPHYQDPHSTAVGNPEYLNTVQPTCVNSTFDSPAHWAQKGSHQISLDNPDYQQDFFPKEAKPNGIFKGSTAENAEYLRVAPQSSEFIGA
T3 sequence (Q15303 26-1308): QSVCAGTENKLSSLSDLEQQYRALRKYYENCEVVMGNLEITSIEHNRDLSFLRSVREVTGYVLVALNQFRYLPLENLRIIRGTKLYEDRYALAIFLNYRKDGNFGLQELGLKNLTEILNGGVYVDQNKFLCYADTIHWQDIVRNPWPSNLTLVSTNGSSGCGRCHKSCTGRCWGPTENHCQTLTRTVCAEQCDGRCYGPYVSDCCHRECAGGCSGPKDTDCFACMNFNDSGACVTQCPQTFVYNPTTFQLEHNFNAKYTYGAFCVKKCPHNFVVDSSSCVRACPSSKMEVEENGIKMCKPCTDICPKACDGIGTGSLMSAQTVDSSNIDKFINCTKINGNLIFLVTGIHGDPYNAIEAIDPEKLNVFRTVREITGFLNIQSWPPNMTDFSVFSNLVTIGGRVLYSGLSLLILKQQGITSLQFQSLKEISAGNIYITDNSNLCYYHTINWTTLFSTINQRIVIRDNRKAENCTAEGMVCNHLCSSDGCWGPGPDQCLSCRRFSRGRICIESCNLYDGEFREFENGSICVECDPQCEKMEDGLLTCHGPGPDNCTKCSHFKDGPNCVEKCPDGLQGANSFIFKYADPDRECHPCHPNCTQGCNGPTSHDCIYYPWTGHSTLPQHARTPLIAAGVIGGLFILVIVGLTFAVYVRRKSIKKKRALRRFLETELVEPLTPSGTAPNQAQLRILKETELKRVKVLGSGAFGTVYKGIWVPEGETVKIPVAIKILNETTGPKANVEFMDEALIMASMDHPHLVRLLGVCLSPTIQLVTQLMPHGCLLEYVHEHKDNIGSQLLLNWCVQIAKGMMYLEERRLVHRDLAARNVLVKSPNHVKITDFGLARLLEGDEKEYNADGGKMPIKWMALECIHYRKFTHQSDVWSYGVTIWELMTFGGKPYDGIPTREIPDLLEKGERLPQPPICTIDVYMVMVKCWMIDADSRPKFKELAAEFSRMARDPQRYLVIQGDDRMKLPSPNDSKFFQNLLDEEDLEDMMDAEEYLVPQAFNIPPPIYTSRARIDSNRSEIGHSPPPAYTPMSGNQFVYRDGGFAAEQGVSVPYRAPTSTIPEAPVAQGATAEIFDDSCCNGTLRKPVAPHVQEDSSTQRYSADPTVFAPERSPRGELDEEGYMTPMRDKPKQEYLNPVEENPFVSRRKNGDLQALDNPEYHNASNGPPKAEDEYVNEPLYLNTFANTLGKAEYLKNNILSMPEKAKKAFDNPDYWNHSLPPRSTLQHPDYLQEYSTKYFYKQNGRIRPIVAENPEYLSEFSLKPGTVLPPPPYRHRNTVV

Usually inhibition stands for the relative decrease from the control value, in per cent. Lower therefore signals little suppression. As to `C=CC(=O)O[C@H]1Cc2cc3ccc(=O)oc3cc2OC1(C)C` [Compound 8, (7S)-(+)-Acrylic acid, 8,8-dimethyl-2-oxo-6,7-dihydro-2H,8H-pyrano [3,2-g]chromen-7-yl ester], the “inhibitory activity against ITK (in words)” value in test [1] is “weak inhibitory activity”. In addition, the inhibition at 10 µM in test [1] (10 µM, mean of two experiments) came out at 17.3%; in test [2] (10 µM, mean of two experiments) it was 32.9%. The “inhibitory activity against EGFR (in words)” value in test [2] is “weak inhibitory activity”. Besides, the “inhibitory activity against ERBB4 (in words)” value in test [3] is “inactive”.
